In article PMC8940841, “A metabolically stable PET tracer for imaging synaptic vesicle protein 2A: synthesis and preclinical characterization of [^18F]SDM-16” (European Journal of Nuclear Medicine and Molecular Imaging, 2021):
Read-outs that look alike come from different tables or passages of the source.

Assays:
human SV2A [1] = target: T1, human SV2A (Homo sapiens, UniProt Q7L0J3); parameters: Duplicate samples of human frontal cortex gray matter were homogenized in PBS buffer; from tissue; host or cells: human frontal cortex gray matter homogenate; conditions: other SV2A ligands; read-out: Ki; cited from earlier work
[2] = Measurement of lipophilicity (octanol / PBS pH 7.4); type: physicochemical; conditions: for logP: octanol/PBS pH 7.4
Protocol: The logP of [^18F]SDM-16 was determined by a method modified from previously published procedures. Briefly, an aliquot of […] (10 µCi) of the radioligand was added to a 2-mL microtube containing 0.8 mL of octanol and 0.8 mL of 1 × phosphate buffered saline (1 × PBS, pH 7.4). The mixture was vortexed for 30 s and then centrifuged at 2000 g for 2 min. A subsample of the octanol (0.1 mL) and 1 × PBS (0.5 mL) layers was evaluated with a gamma counter. The major portion of the octanol layer (0.5 mL) was diluted with another 0.3 mL of octanol, mixed with a fresh portion of 0.8 mL of PBS, vortexed, centrifuged, and analyzed as described above. This process was repeated until consistent log P values were obtained, with five consecutive equilibration procedures being performed for each logP measurement. Four separate measurements were performed for [^18F]SDM-16 on different days.

[3] = Plasma free fraction (fp) by ultrafiltration; type: in vitro ADME, rhesus monkey; conditions: monkey, plasma (separated from spiked whole blood)
Protocol: The unbound fraction of [^18F]SDM-16 in plasma (fp) of rhesus monkey was measured in triplicate using the ultrafiltration method. Briefly, [^18F]SDM-16 solution was added to 3 mL of whole blood. After incubation at ambient temperature for 5 min, the blood sample was centrifuged at 3900 rpm for 5 min. A sample of the supernatant plasma (0.3 mL) was loaded onto the reservoir of a Centrifree® Ultrafiltration device (Merck Millipore Ltd. Tullagreen, Carrigtwohill, Co. Cork, IRELAND) in triplicate and centrifuged at 1228 g for 20 min. The fp value was calculated as the ratio of radioactivity in the filtrate to that in the plasma.

[4] = Plasma radiometabolite analysis during PET scans; type: in vivo, rhesus monkeys; conditions: 30 min p.i.
Protocol: Arterial blood samples were collected during the PET scans to measure the radioactivity in plasma for generation of the metabolite-corrected arterial plasma input function. Plasma radiometabolite analysis was performed using the column-switching method, following a published protocol. Briefly, arterial blood samples were collected at 3-, 8-, 15-, 30-, 60-, 90-, 120-, and 180-min post-injection (p. i.), treated with urea (8 M), filtered, and injected onto a self-packed short column (4.6 × 19 mm) eluting with 1% MeCN in water at a flow rate of 2 mL/min. The sample was then back flushed onto a Gemini-NX column (5 μm, 4.6 mm × 250 mm) eluting with 40% MeCN/60% 0.1 M ammonium formate (pH 6.4) at a flow rate of 1.2 mL/min. The eluent was fraction-collected using an automated spectrum chromatography CF-1 fraction collector. Activity in the whole blood, plasma, filtrated plasma-urea mix, filters, and HPLC fractions were counted with automatic gamma well-counter (Wizard 2, PerkinElmer). The sample recovery rate, extraction efficiency, and HPLC fraction recovery were monitored. The unmetabolized [^18F]SDM-16 parent fraction was determined as the ratio of the sum of radioactivity in fractions containing the parent compound to the total amount of radioactivity collected and fitted with inverted Gamma4 approaches.
[^18F]SDM-16 had higher metabolite-corrected plasma SUV than the other SV2A radiotracers, indicating slower plasma clearance and higher metabolic stability (Fig. 2a). Whole-blood and plasma-input functions were highly consistent between the two animals, with a stable plasma to whole-blood ratio of 0.93 ± 0.13 over the entire 180-min acquisition period (Fig. S1).

SV2A [5] = conditions: 1TC, cited from earlier work
SV2A [6] = target: SV2A (Macaca mulatta, UniProt H9EQH8); conditions: previously determined; cited from earlier work
[7] = Brain PET imaging with 1TC kinetic modeling; conditions: rhesus monkey
Protocol: (§1) A total of 10 PET imaging experiments with [^18F]SDM-16 were performed in rhesus monkeys (Macaca mulatta) according to a protocol approved by the Yale University Institutional Animal Care and Use Committee (IACUC). Four monkeys were studied. […] Body temperature was maintained by a water-jacket heating pad. The animal was attached to a physiological monitor, and vital signs (heart rate, blood pressure, respirations, SPO2, EKG, ETCO2, and body temperature) were continuously monitored. A venous line was inserted in one limb for administration of radiotracer, displacement, and blocking drugs. A catheter was placed in the femoral artery in the other limb for blood sampling. Dynamic PET brain scans were performed on a Focus 220 system (Siemens Medical Solutions, Knoxville, TN, USA) with a reconstructed image resolution of approximately 1.5 mm. After a 9-min transmission scan, the radioligand was injected i.v. over 3 min. by an infusion pump. Dynamic PET scans were performed for 3 h (baseline and blocking scans) or 4 h (displacement scan).
(§2) PET images were reconstructed with built-in corrections for attenuation, normalization, scatter, randoms, and deadtime. PET brain images were registered to the animal’s MR image, which was subsequently registered to a brain atlas to define the regions of interest. Dynamic images were reconstructed using a Fourier rebinning and filtered back projection algorithm. A rhesus monkey brain atlas was used for generation of regions of interest (ROIs) and time − activity curves (TACs) for the following ROIs: amygdala, brain stem, caudate nucleus, centrum semiovale (CS), cerebellum, cingulate cortex, frontal cortex, globus pallidus, hippocampus, insula, nucleus accumbens, occipital cortex, pons, putamen, substantia nigra, temporal cortex, and thalamus.
(§3) Volume of distribution (VT, mL·cm^−3) values and the first-order kinetic rate constants of tracer (K1) were derived through 1-tissue (1T) compartment kinetic modeling with the metabolite-corrected arterial plasma input function, which was calculated as the product of the fitted total plasma curve and the parent radiotracer fraction curve. Nondisplaceable volume of distribution (VND) and SV2A occupancy by LEV was calculated using the Lassen plot [32]. Nondisplaceable binding potential (BPND) values were calculated from VT values using CS as reference region, or the VND derived from the blocking study, i.e., BPND = (VT, ROI − VT, CS)/ VT, CS or BPND = (VT/VND) -1.

SV2A [8] = experiment: Brain PET imaging with 1TC kinetic modeling; conditions: for VT (baseline): 1TC
Protocol: as §1, §2, §3

[9] = Free base fraction in plasma by modified Henderson-Hasselbalch equation (Eq. 1); conditions: Eq. 1, plasma pH 7.4
human SV2A [10] = target: T1, human SV2A; experiment: biochemical; conditions: [^3H]UCB-J, human frontal cortex homogenate
Protocol: Competition binding assays were performed twice independently using separate assay materials, with 4 technical replicates from each independent assay. […] Duplicate samples of human frontal cortex gray matter were homogenized in PBS buffer (10 mg/mL) for storage at − 80 °C and were diluted to a stock concentration of 4 mg/mL in PBS on the day of the assays. […] Working stocks of brain homogenate (100 µL; final concentration of 2 mg/mL), blocking ligands (20 µL), and radioligand (80 µL; final concentration 2.5 nM) were combined in quadruplicate wells of 96-well plates, sealed, and incubated at room temperature for 90 min on an orbital shaker set to 250 RPM. Reaction plates were filtered, rapidly washed with cold PBS, and dried. Forty microliters of Microscint-20 scintillation cocktail (Perkin-Elmer) was added to each well, and the plate was counted using a Microbeta2 plate reader (Perkin-Elmer). GraphPad Prism was used for curve fitting using the one-site Ki model.

T1 sequence (Q7L0J3 whole entry): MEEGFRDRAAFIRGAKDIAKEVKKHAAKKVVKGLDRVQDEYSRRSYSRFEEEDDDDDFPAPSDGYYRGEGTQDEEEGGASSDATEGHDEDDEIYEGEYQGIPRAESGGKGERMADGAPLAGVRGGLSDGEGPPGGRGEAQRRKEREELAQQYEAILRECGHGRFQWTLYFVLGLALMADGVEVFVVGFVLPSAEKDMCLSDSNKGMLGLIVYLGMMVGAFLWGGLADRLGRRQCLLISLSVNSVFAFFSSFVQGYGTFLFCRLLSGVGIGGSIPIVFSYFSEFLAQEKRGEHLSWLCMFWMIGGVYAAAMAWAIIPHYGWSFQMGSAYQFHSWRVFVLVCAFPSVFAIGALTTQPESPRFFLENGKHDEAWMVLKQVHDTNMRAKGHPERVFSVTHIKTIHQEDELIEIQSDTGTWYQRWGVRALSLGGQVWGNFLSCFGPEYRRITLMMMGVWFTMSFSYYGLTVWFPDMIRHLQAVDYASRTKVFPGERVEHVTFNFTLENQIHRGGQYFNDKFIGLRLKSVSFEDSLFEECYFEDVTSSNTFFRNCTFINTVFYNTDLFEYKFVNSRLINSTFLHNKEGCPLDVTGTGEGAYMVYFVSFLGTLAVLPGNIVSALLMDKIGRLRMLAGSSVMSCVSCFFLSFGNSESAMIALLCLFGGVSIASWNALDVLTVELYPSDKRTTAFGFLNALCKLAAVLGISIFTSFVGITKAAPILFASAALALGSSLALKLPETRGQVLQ
SV2A (Macaca mulatta, UniProt H9EQH8), sequence (H9EQH8 1-742): as the sequence (Q7L0J3 whole entry) above, with G64S, I572V counted along it

Cc1cnccc1CN1C[C@@H](c2cc(F)cc(F)c2)CC1=O [SynVesT-1]
Ki (human SV2A [1]): 3.1 nM

[11CH3]c1cnccc1CN1C[C@@H](c2cc(F)c(F)c(F)c2)CC1=O [[^11C]UCB-J]
logP [2]: 2.46
fraction unbound at 5 min [3]: 0.46
parent fraction in plasma [4]: 40 ± 6%
VT (baseline) (SV2A [5]; Amygdala): 24.4 ± 2.0 mL/cm^3
VT (baseline) (SV2A [5]; Brainstem): 23.5 ± 2.8 mL/cm^3
VT (baseline) (SV2A [5]; Caudate): 44.8 ± 4.6 mL/cm^3
VT (baseline) (SV2A [5]; Centrum semiovale): 13.6 ± 2.9 mL/cm^3
VT (baseline) (SV2A [5]; Cerebellum): 39.5 ± 5.8 mL/cm^3
VT (baseline) (SV2A [5]; Cingulate cortex): 55.6 ± 10.0 mL/cm^3
VT (baseline) (SV2A [5]; Frontal cortex): 55.4 ± 8.2 mL/cm^3
VT (baseline) (SV2A [5]; Globus pallidus): 27.9 ± 3.0 mL/cm^3
VT (baseline) (SV2A [5]; Hippocampus): 34.4 ± 2.8 mL/cm^3
VT (baseline) (SV2A [5]; Insular cortex): 54.6 ± 6.7 mL/cm^3
VT (baseline) (SV2A [5]; Nucleus accumbens): 53.9 ± 9.2 mL/cm^3
VT (baseline) (SV2A [5]; Occipital cortex): 52.9 ± 7.0 mL/cm^3
VT (baseline) (SV2A [5]; Putamen): 45.2 ± 3.0 mL/cm^3
VT (baseline) (SV2A [5]; Temporal cortex): 50.4 ± 6.9 mL/cm^3
VT (baseline) (SV2A [5]; Thalamus): 40.3 ± 6.4 mL/cm^3
VND (SV2A [6]): 6.27 mL/cm^3
fraction unbound ([7]; brain tissue, intravenous): 0.073
BPND, VND method (SV2A [8]; Amygdala): 2.77 ± 0.06
BPND, VT(CS) method (SV2A [8]; Amygdala): 0.85 ± 0.34
K1 (SV2A [8]; Amygdala): 0.48 ± 0.14 mL/cm^3 per min
BPND, VND method (SV2A [8]; Anterior cingulate): 6.84 ± 0.18
BPND, VT(CS) method (SV2A [8]; Anterior cingulate): 2.70 ± 0.74
K1 (SV2A [8]; Anterior cingulate): 0.73 ± 0.20 mL/cm^3 per min
BPND, VND method (SV2A [8]; Brainstem): 2.61 ± 0.44
BPND, VT(CS) method (SV2A [8]; Brainstem): 0.76 ± 0.21
K1 (SV2A [8]; Brainstem): 0.89 ± 0.17 mL/cm^3 per min
BPND, VND method (SV2A [8]; Caudate): 5.78 ± 0.43
BPND, VT(CS) method (SV2A [8]; Caudate): 2.40 ± 0.72
K1 (SV2A [8]; Caudate): 0.75 ± 0.12 mL/cm^3 per min
BPND, VND method (SV2A [8]; Cerebellum): 4.43 ± 0.83
BPND, VT(CS) method (SV2A [8]; Cerebellum): 1.95 ± 0.36
K1 (SV2A [8]; Cerebellum): 0.81 ± 0.16 mL/cm^3 per min
BPND, VND method (SV2A [8]; Cingulate cortex): 7.37 ± 1.18
BPND, VT(CS) method (SV2A [8]; Cingulate cortex): 3.17 ± 0.84
BPND, VND method (SV2A [8]; Frontal cortex): 7.28 ± 1.00
BPND, VT(CS) method (SV2A [8]; Frontal cortex): 3.17 ± 0.84
K1 (SV2A [8]; Frontal cortex): 0.66 ± 0.16 mL/cm^3 per min
BPND, VND method (SV2A [8]; Globus pallidus): 3.31 ± 0.38
BPND, VT(CS) method (SV2A [8]; Globus pallidus): 1.10 ± 0.28
K1 (SV2A [8]; Globus pallidus): 0.65 ± 0.11 mL/cm^3 per min
in vivo Kd ratio, Kd(tracer)/Kd([^18F]SDM-16) (SV2A [8]; Guo plot of baseline VT): 0.38
BPND, VND method (SV2A [8]; Hippocampus): 4.47 ± 0.14
BPND, VT(CS) method (SV2A [8]; Hippocampus): 1.59 ± 0.39
K1 (SV2A [8]; Hippocampus): 0.61 ± 0.12 mL/cm^3 per min
BPND, VND method (SV2A [8]; Insular cortex): 7.24 ± 0.73
BPND, VT(CS) method (SV2A [8]; Insular cortex): 3.12 ± 0.81
K1 (SV2A [8]; Insular cortex): 0.75 ± 0.17 mL/cm^3 per min
K1 (SV2A [8]; Mean ± SD over brain regions): 0.72 ± 0.17 mL/cm^3 per min
BPND, VND method (SV2A [8]; Nucleus accumbens): 7.16 ± 1.13
BPND, VT(CS) method (SV2A [8]; Nucleus accumbens): 3.12 ± 0.81
K1 (SV2A [8]; Nucleus accumbens): 0.77 ± 0.17 mL/cm^3 per min
BPND, VND method (SV2A [8]; Occipital cortex): 7.01 ± 0.88
BPND, VT(CS) method (SV2A [8]; Occipital cortex): 2.97 ± 0.65
K1 (SV2A [8]; Occipital cortex): 0.81 ± 0.21 mL/cm^3 per min
BPND, VND method (SV2A [8]; Putamen): 6.00 ± 0.24
BPND, VT(CS) method (SV2A [8]; Putamen): 2.42 ± 0.63
K1 (SV2A [8]; Putamen): 1.03 ± 0.19 mL/cm^3 per min
BPND, VND method (SV2A [8]; Temporal cortex): 6.57 ± 0.89
BPND, VT(CS) method (SV2A [8]; Temporal cortex): 2.79 ± 0.61
K1 (SV2A [8]; Temporal cortex): 0.66 ± 0.14 mL/cm^3 per min
BPND, VND method (SV2A [8]; Thalamus): 5.21 ± 0.57
BPND, VT(CS) method (SV2A [8]; Thalamus): 2.03 ± 0.62
K1 (SV2A [8]; Thalamus): 0.72 ± 0.24 mL/cm^3 per min

Cc1cnccc1CN1C[C@@H](c2cccc([18F])c2)CC1=O [[^18F]SynVesT-2]
logP [2]: 2.17
fraction unbound at 5 min [3]: 0.41
VND (SV2A [6]): 2.10 mL/cm^3
fraction unbound ([7]; in vivo): 0.195

[11CH3]n1cncc1CN1C[C@@H](c2cc(F)cc(F)c2)CC1=O [[^11C]UCB-A]
logD ([2]; octanol / 1x PBS, pH 7.4): 1.1
logP [2]: 1.1
fraction unbound at 5 min [3]: 0.75
parent fraction in plasma [4]: 70 ± 7%
fraction present in plasma as free base [9]: 49%
K1 (SV2A [8]; Amygdala): 0.11 ± 0.01 mL/cm^3 per min
VT (baseline) (SV2A [8]; Amygdala): 15.6 ± 8.2 mL/cm^3
K1 (SV2A [8]; Anterior cingulate): 0.15 ± 0.03 mL/cm^3 per min
K1 (SV2A [8]; Brainstem): 0.15 ± 0.03 mL/cm^3 per min
VT (baseline) (SV2A [8]; Brainstem): 21.0 ± 4.9 mL/cm^3
K1 (SV2A [8]; Caudate): 0.13 ± 0.02 mL/cm^3 per min
K1 (SV2A [8]; Cerebellum): 0.17 ± 0.03 mL/cm^3 per min
K1 (SV2A [8]; Cingulate cortex): 0.17 ± 0.034 mL/cm^3 per min
K1 (SV2A [8]; Frontal cortex): 0.15 ± 0.03 mL/cm^3 per min
VT (baseline) (SV2A [8]; Frontal cortex): 49.0 ± 18.2 mL/cm^3
K1 (SV2A [8]; Globus pallidus): 0.10 ± 0.01 mL/cm^3 per min
K1 (SV2A [8]; Hippocampus): 0.12 ± 0.02 mL/cm^3 per min
VT (baseline) (SV2A [8]; Hippocampus): 31.4 ± 16.6 mL/cm^3
K1 (SV2A [8]; Insular cortex): 0.15 ± 0.01 mL/cm^3 per min
VT (baseline) (SV2A [8]; Insular cortex): 57.8 ± 26.9 mL/cm^3
K1 (SV2A [8]; Mean ± SD over brain regions): 0.14 ± 0.03 mL/cm^3 per min
K1 (SV2A [8]; Nucleus accumbens): 0.13 ± 0.02 mL/cm^3 per min
VT (baseline) (SV2A [8]; Nucleus accumbens): 34.1 ± 4.8 mL/cm^3
K1 (SV2A [8]; Occipital cortex): 0.19 ± 0.03 mL/cm^3 per min
VT (baseline) (SV2A [8]; Occipital cortex): 47.0 ± 16.6 mL/cm^3
K1 (SV2A [8]; Putamen): 0.17 ± 0.03 mL/cm^3 per min
K1 (SV2A [8]; Temporal cortex): 0.14 ± 0.02 mL/cm^3 per min
VT (baseline) (SV2A [8]; Temporal cortex): 51.4 ± 26.2 mL/cm^3
K1 (SV2A [8]; Thalamus): 0.14 ± 0.03 mL/cm^3 per min
SUV (brain tracer uptake) (SV2A [8]; baseline scan, end of scan, frontal cortex and putamen): about 4

Cc1nccn1CN1C[C@H](c2cc(F)cc(F)c2)CC1=O [(S)-SDM-16]
Ki (human SV2A [10]): 25.5 nM
